# Laboratory results published in the kinase profiling compilation of Christmann-Franck et al. (2016).
# Tests used:
# Assay in all cases: radiometric filter-binding kinase assay, Kinase HotSpot
# Settings in all cases: compound 0.5 µM; ATP 10 µM
# TXK (human) = TXK (human) (UniProt P42681)
# YES1 (human) = YES1 (human) (UniProt P07947)
# BRSK2 (human) = BRSK2 (human) (UniProt Q8IWQ3)
# DDR2 (human) = DDR2 (human) (UniProt Q16832)
# ABL1 (human) = ABL1 (human) (UniProt P00519)
# ULK2 (human) = ULK2 (human) (UniProt Q8IYT8)
# NTRK3 (human) = NTRK3 (human) (UniProt Q16288)
# IKBKB (human) = IKBKB (human) (UniProt O14920)
# Chain of IKBKB (human) (O14920 whole entry, looked up): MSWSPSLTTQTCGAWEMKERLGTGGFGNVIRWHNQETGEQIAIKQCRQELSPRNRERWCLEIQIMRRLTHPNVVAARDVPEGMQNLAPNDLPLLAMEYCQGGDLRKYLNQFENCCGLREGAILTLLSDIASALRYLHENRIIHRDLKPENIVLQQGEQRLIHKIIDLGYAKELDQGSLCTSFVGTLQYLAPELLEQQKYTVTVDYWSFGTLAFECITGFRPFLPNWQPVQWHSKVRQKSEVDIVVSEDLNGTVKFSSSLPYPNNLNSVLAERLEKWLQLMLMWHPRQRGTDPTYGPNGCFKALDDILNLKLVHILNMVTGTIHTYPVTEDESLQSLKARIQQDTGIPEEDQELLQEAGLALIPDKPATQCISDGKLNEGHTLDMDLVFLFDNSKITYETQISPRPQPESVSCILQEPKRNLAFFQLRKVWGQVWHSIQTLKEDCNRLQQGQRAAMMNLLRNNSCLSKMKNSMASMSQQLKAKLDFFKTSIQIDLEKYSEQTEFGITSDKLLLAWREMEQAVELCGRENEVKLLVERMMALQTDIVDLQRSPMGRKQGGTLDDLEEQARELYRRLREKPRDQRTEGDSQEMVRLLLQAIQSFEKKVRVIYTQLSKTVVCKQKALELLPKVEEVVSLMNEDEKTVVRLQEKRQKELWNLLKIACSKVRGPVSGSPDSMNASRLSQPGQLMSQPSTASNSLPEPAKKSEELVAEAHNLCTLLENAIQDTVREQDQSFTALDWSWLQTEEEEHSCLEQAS
# PRKCD (human) = PRKCD (human) (UniProt Q05655)
# TYRO3 (human) = TYRO3 (human) (UniProt Q06418)
# CLK3 (human) = CLK3 (human) (UniProt P49761)
# RPS6KA2 KD1 KD2 (human) = RPS6KA2 KD1 KD2 (human) (UniProt Q15349)
# STK17A (human) = STK17A (human) (UniProt Q9UEE5)
# RET (human) = RET (human) (UniProt P07949)
# Chain of RET (human) (P07949 whole entry, looked up): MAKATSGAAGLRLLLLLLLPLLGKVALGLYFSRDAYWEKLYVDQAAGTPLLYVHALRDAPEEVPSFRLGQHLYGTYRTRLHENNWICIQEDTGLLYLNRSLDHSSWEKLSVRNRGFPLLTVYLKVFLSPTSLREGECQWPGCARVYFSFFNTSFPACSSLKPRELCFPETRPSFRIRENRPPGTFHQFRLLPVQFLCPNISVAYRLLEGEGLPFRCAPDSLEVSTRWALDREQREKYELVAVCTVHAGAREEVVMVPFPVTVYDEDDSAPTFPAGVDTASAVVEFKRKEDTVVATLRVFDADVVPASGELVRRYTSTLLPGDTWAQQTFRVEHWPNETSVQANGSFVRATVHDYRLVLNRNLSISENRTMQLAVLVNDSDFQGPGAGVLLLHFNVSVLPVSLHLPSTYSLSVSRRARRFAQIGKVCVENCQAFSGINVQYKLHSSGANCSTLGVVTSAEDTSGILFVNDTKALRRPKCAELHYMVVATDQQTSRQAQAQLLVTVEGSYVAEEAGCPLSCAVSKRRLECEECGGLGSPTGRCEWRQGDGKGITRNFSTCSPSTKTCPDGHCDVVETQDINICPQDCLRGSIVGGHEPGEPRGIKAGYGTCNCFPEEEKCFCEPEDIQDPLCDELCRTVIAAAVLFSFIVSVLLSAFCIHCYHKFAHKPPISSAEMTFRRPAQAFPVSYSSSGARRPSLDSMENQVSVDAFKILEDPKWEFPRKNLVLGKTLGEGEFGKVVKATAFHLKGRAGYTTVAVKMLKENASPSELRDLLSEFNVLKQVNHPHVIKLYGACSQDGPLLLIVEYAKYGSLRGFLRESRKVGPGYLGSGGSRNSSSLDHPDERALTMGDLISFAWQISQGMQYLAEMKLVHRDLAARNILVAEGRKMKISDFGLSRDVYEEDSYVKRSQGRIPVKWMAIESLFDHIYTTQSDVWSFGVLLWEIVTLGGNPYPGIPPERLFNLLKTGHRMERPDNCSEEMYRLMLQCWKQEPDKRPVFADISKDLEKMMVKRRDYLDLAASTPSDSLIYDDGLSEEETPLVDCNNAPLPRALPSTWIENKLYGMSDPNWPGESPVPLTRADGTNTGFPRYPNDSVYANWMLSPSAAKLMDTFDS
# STK24 (human) = STK24 (human) (UniProt Q9Y6E0)
# MAPK14 (human) = MAPK14 (human) (UniProt Q16539)
# AURKA (human) = AURKA (human) (UniProt O14965)
# Chain of AURKA (human) (O14965 whole entry, looked up): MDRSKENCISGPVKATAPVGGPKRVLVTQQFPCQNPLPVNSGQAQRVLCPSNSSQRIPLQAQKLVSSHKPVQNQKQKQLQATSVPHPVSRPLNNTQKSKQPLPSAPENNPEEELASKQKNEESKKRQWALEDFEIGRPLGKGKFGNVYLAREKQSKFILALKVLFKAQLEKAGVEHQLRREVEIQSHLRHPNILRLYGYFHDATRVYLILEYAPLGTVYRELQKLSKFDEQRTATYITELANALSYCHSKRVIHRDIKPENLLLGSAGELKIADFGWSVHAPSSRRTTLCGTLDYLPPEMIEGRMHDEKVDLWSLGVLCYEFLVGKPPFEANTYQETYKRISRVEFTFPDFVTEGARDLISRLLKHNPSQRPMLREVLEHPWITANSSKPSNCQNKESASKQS
# BLK (human) = BLK (human) (UniProt P51451)
# CDK4 CCND1 (human) = CDK4 CCND1 (human) (UniProt P24385+P11802)
# CAMK2B (human) = CAMK2B (human) (UniProt Q13554)
# MLTK (human) = MLTK (human) (UniProt Q9NYL2)
# DCLK2 (human) = DCLK2 (human) (UniProt Q8N568)
# CSNK2A1 (human) = CSNK2A1 (human) (UniProt P68400)
# CDK3 CCNE1 (human) = CDK3 CCNE1 (human) (UniProt Q00526+P24864)
# WEE1 (human) = WEE1 (human) (UniProt P30291)
# MAPKAPK2 (human) = MAPKAPK2 (human) (UniProt P49137)
# GRK4 (human) = GRK4 (human) (UniProt P32298)
# FGFR1 (human) = FGFR1 (human) (UniProt P11362)
# Chain of FGFR1 (human) (P11362 whole entry, looked up): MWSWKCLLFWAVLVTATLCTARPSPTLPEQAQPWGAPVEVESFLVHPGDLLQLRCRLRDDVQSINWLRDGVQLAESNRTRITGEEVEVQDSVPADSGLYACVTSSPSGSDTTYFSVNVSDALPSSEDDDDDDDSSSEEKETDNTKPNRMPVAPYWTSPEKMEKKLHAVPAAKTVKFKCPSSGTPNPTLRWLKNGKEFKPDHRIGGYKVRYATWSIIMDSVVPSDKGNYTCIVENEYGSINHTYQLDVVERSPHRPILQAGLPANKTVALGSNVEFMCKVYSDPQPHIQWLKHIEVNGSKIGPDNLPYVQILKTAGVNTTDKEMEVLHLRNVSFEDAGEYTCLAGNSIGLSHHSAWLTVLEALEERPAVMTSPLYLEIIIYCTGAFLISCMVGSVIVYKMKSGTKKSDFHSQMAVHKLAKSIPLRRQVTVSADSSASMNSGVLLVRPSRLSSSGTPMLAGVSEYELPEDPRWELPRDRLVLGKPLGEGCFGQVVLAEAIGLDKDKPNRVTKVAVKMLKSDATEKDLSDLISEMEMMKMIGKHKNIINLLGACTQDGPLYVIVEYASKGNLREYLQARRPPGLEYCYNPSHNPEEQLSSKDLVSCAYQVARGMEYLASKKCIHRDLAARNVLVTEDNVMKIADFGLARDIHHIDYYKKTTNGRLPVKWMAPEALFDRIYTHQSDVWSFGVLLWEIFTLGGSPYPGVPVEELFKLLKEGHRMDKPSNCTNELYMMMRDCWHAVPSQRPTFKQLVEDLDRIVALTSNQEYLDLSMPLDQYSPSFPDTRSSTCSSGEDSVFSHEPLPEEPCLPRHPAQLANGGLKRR
# MAPKAPK5 (human) = MAPKAPK5 (human) (UniProt Q8IW41)
# RPS6KA4 KD2 (human) = RPS6KA4 KD2 (human) (UniProt O75676)
# PRKCH (human) = PRKCH (human) (UniProt P24723)
# Chain of PRKCH (human) (P24723 whole entry, looked up): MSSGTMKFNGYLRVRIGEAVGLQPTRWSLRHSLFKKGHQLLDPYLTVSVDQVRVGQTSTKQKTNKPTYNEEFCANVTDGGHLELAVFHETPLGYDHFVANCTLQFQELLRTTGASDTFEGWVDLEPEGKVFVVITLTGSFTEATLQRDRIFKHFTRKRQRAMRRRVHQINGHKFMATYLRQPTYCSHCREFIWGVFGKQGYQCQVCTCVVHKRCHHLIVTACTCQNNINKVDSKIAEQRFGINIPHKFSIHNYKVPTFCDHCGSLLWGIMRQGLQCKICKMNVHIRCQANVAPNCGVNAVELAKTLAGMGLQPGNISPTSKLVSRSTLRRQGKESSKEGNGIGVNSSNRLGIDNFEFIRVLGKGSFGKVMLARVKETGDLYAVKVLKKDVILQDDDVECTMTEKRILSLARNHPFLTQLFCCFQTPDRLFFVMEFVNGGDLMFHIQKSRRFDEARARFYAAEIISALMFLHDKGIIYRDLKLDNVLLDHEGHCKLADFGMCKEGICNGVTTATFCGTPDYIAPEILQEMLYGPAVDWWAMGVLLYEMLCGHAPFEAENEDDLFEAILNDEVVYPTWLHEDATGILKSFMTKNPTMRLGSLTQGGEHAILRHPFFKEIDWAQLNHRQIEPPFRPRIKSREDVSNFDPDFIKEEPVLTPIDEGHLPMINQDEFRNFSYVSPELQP
# NEK4 (human) = NEK4 (human) (UniProt P51957)
# RPS6KA1 KD1 KD2 (human) = RPS6KA1 KD1 KD2 (human) (UniProt Q15418)
# RPS6KB2 (human) = RPS6KB2 (human) (UniProt Q9UBS0)
# TAOK1 (human) = TAOK1 (human) (UniProt Q7L7X3)
# LTK (human) = LTK (human) (UniProt P29376)
# Chain of LTK (human) (P29376 whole entry, looked up): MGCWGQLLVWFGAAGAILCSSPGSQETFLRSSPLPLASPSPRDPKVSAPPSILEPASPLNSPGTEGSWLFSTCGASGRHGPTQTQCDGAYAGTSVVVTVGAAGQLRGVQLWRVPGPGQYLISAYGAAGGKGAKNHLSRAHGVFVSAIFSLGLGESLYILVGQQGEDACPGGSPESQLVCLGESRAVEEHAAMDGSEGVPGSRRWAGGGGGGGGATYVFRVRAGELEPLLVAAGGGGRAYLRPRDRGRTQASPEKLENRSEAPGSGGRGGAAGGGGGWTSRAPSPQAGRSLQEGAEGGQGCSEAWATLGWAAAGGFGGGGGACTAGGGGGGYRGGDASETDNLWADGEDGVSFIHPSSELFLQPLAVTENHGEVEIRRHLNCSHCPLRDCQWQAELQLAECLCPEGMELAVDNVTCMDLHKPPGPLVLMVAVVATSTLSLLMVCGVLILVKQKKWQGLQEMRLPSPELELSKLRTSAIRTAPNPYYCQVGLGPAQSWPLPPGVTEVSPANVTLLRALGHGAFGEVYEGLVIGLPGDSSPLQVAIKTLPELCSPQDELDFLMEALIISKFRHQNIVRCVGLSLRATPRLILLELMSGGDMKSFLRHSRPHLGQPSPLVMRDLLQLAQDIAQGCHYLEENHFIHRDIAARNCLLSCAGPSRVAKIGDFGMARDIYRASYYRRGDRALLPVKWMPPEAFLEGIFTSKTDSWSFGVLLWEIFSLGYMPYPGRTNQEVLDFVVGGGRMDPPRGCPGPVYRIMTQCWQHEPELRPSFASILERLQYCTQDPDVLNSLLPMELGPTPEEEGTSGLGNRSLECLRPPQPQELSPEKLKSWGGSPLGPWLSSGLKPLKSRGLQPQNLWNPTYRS
# MKNK2 (human) = MKNK2 (human) (UniProt Q9HBH9)
# MAPK1 (human) = MAPK1 (human) (UniProt P28482)
# Chain of MAPK1 (human) (P28482 whole entry, looked up): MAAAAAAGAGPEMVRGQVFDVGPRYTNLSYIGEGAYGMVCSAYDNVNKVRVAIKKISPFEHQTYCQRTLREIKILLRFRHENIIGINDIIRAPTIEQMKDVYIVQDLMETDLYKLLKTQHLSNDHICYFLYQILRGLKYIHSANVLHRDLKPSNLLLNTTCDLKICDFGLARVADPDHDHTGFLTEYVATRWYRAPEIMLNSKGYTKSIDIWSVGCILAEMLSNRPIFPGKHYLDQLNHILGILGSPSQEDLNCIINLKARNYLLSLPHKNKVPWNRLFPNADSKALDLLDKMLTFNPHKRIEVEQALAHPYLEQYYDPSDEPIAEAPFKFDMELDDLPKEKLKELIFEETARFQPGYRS
# RPS6KA6 KD1 KD2 (human) = RPS6KA6 KD1 KD2 (human) (UniProt Q9UK32)
# PHKG1 (human) = PHKG1 (human) (UniProt Q16816)
# TAOK2 (human) = TAOK2 (human) (UniProt Q9UL54)
# EPHB3 (human) = EPHB3 (human) (UniProt P54753)
structure (smiles),measurement,setting,value
COc1cc2ncnc(N3CCN(C(=O)Nc4ccc(Oc5ccccc5)cc4)CC3)c2cc1OC,residual activity,TXK (human),99.3%
same,residual activity,YES1 (human),106%
same,residual activity,BRSK2 (human),94.1%
same,residual activity,DDR2 (human),95.1%
same,residual activity,ABL1 (human),97.4%
same,residual activity,ULK2 (human),102%
same,residual activity,NTRK3 (human),89%
same,residual activity,IKBKB (human),102%
same,residual activity,PRKCD (human),84.3%
same,residual activity,TYRO3 (human),99.6%
same,residual activity,CLK3 (human),88.9%
same,residual activity,RPS6KA2 KD1 KD2 (human),86.1%
same,residual activity,STK17A (human),85.5%
same,residual activity,RET (human),104%
same,residual activity,STK24 (human),99.6%
same,residual activity,MAPK14 (human),81%
same,residual activity,AURKA (human),79.6%
same,residual activity,BLK (human),113%
same,residual activity,CDK4 CCND1 (human),101%
same,residual activity,CAMK2B (human),96.3%
same,residual activity,MLTK (human),96.2%
same,residual activity,DCLK2 (human),90.6%
same,residual activity,CSNK2A1 (human),96.2%
same,residual activity,CDK3 CCNE1 (human),82%
same,residual activity,WEE1 (human),97.5%
same,residual activity,MAPKAPK2 (human),102%
same,residual activity,GRK4 (human),94.7%
same,residual activity,FGFR1 (human),89.6%
same,residual activity,MAPKAPK5 (human),118%
same,residual activity,RPS6KA4 KD2 (human),96.2%
same,residual activity,PRKCH (human),86.1%
same,residual activity,NEK4 (human),94.4%
same,residual activity,RPS6KA1 KD1 KD2 (human),82%
same,residual activity,RPS6KB2 (human),92.4%
same,residual activity,TAOK1 (human),81.6%
same,residual activity,LTK (human),89.8%
same,residual activity,MKNK2 (human),94.2%
same,residual activity,MAPK1 (human),83.9%
same,residual activity,RPS6KA6 KD1 KD2 (human),92%
same,residual activity,PHKG1 (human),89.5%
same,residual activity,TAOK2 (human),96.3%
same,residual activity,EPHB3 (human),89.6%
